This is an account of results in the NIST ThermoML archive (doi:10.1021/je025629r).

± gives the expanded uncertainty stated by the source.

For the data set the following is noted: 298.2 K; 101.33 kPa; Liquid; vibrating tube.

The term mass density denotes the mass of a sample divided by its volume. On to `CCCCCCCC[n+]1ccn(C)c1.[Cl-]` [1-methyl-3-octylimidazolium chloride], for which the mass density is reported as 1010.4 ± 1 kg/m3. Then `CCCCCCCCCCCC` [dodecane], with 746.6 ± 0.4 kg/m3; and `CCO` [ethanol], with 784.93 ± 0.42 kg/m3; and `CCCCCCC` [heptane], with 682.3 ± 0.4 kg/m3. Then `CCCCCCCCCCCCCCCC` [hexadecane], with 770.3 ± 0.4 kg/m3; and `CO` [methanol], with 786.27 ± 0.42 kg/m3.
